How the values were obtained:
[1] = molecular target: U937 Phosphodiesterase IV (PDE IV); assay: Inhibition of U937 Phosphodiesterase IV (PDE IV); type: biochemical; details: inhibitory activity on PDE-IV; enzyme preparation from U937 cells, [3H]cAMP SPA assay, CI-930 10 μM present
Method: (a) Inhibition of U937 Phosphodiesterase IV (PDE IV)
Cultured U937 cells were washed twice and harvested with phosphate-buffered saline (PBS) by cell-scraper. After centrifugation, the cell pellet was suspended in homogenizing buffer (0.5% deoxycholate [DOC], 5 mM 2-mercaptoethanol, 1 μM leupeptin, 100 μM PMSF, 20 μM p-tosyl-L-lysine-chloromethyl ketone [TLCK] in PBS). The cell suspension was then sonicated for a couple of minutes and homogenized by a glass-Teflon homogenizer with twenty strokes. The homogenate was centrifuged at 200 g for 30 minutes, and the supernatant was further ultra-centrifuged at 100,000×g for 90 minutes (4° C.). The final supernatant was dialyzed against dialysis buffer, which was the same component as homogenizing buffer without DOC. The dialysate of enzyme preparation was stored at −20° C. until assay.
PDE4, activity was estimated with a Phosphodiesterase [^3H]cAMP SPA Enzyme Assay System (Amersham Pharmacia Biotech), using a 96 well Opti-plate. Reactions were initiated by addition of 0.025 μCi/well of [^3H]cAMP to the enzyme mixture containing 50 mM Tris-HCl (pH 7.5), 8.3 mM MgCl2, 1.7 mM EGTA, and various concentrations of the test compound or vehicle. CI-930 (10 μM in final), a specific PDE3, inhibitor, was also added in the reaction mixture. After incubation at 30° C. for 15 minutes, 50 μL of SPA beads suspension was added to each well. The well-plate was then shaken for 20 minutes by a plate mixer. Radio-activity in each well was counted by a Top Counter.
Test compounds were dissolved in 100% dimethylsulfoxide (DMSO) and diluted into respective concentrations with the final solution containing 1% v/v of DMSO.
IC50 values of test compounds for the enzyme activity of PDE4 was determined from regression analysis for log-logit conversion values of percent inhibition in the compound-treated tubes compared to that of the control. Percent inhibition was calculated with the following equation: Inhibition (%)={1−(C−B)/(A−B)}×100; in which A, B and C means mean values of radio-activity counts (dpm) of control, blank and the compound-treated tubes, respectively.

[2] = tested on: TNF-alpha production in rat peripheral blood mononuclear cells (PBMC); assay: Inhibition on TNF-alpha production in rat mononuclear cells; type: cell-based; details: inhibitory activity on TNF-alpha production, LPS 1 μg/mL, 24 hours, ELISA
Method: (b) Inhibition on TNF-alpha Production in Rat Mononuclear Cells 1. Test Method (1) Rat Peripheral Blood Mononuclear Cells (PBMC) Preparation
Male Wistar rat at the age of 15 weeks was anesthetized with ether and the blood (about 15 ml) was collected with a disposable syringe from the abdominal artery under celiotomy. Collected blood was transferred to a heparin containing polyethylene tube and an equal volume of RPMI1640 was added to each tube. Diluted blood was then piled tip to 20 ml of Lympholyte-Rat (Cedarlane Laboratories, Canada) in polystyrene centrifuge tube. After centrifugation at 3,000 rpm for 30 minutes, cells gathering in the center area of the gradient were collected by capillary and washed with 40 mL of RPMI1640 by twice of centrifugation at 1,200 rpm for 10 minutes. Precipitate was then suspended in 10 ml of Tris-ammonium-chloride buffer and stood for 10 minutes in order to lyse remaining erythrocytes. After centrifugation at 1,200 rpm for 10 minutes, the precipitate was washed twice with 50 ml of RPMI1640 by centrifugation. PBMC finally precipitated were suspended in RPMI1640 containing 1% fetal bovine serum and antibiotics. After cell counting, final suspension at 3×10^6 cells/mL in culture medium was prepared.
(2) TNF-alpha Production from Stimulated PBMCs
Rat PBMC prepared by the density gradient method using Lympholyte-Rat, were suspended in the culture medium mentioned above with the concentration of 3×10^6 cells/mL and 0.5 ml of the suspension was sowed into each well of a 24-well culture plate. Cells were incubated in the CO2 incubator for 24 hours with 0.25 ml of LPS in addition of 0.25 ml of concentrations of drugs or vehicle at the start of the incubation. Final concentration of LPS in the incubation medium was 1 μg/mL. After 24 hours, the supernatant of each well by centrifugation at 1,700 rpm for 10 minutes was stored at −80° C. until assay. TNF-alpha levels in the medium were measured by ELISA.
The IC50 values of drugs on cytokine productions in LPS stimulated PBMC were estimated by the regression analysis for the relative values of cytokine level in the drug-treated wells compared to those of the vehicle-treated ones.

Structure (SMILES) | IC50 [1] [nM] | IC50 [2] [nM] | melting point [°C]
CCn1ncc2c(-c3cncc(Br)c3)c(C#N)c(C)nc21 [Example 73, 4-(5-bromo-3-pyridyl)-1-ethyl-6-methyl-1H-pyrazolo[3,4-b]pyridine-5-carbonitrile] | < 1000 | 27 | 165 to 166
CCn1ncc2c(-c3cncc(Br)c3)c(/C=C/C(=O)O)c(C)nc21 [Example 84, (2E)-3-[4-(5-Bromo-3-pyridyl)-1-ethyl-6-methyl-1H-pyrazolo[3,4-b]pyridin-5-yl]acrylic acid] | < 1000 | 62.7 | 189 to 190
CCn1ncc2c(-c3cncc(C)c3)c(/C=C/C(=O)O)c(COCC3CCCCC3)nc21 [Example 89, (2E)-3-[6-[(Cyclohexylmethoxy)methyl]-1-ethyl-4-(5-methyl-3-pyridyl)-1H-pyrazolo[3,4-b]pyridin-5-yl]acrylic acid] | < 1000 | 85.6 | 172 to 173
CCn1ncc2c(-c3cncc(C)c3)c(/C=C/C(=O)O)c(-c3ccccc3)nc21 [Example 91, (2E)-3-[1-Ethyl-4-(5-methyl-3-pyridyl)-6-phenyl-1H-pyrazolo[3,4-b]pyridin-5-yl]acrylic acid] | < 1000 | 15.7 | 
CCn1ncc2c(-c3cncc(Cl)c3)c(/C=C/C(=O)O)c(COC)nc21 [Example 231, (2E)-3-[4-(5-chloro-3-pyridyl)-1-ethyl-6-(methoxymethyl)-1H-pyrazolo[3,4-b]pyridin-5-yl]acrylic acid] |  |  | 187 to 188
CCOCc1nc2c(cnn2CC)c(-c2cncc(C)c2)c1/C=C/C(=O)O [Example 234, (2E)-3-[6-(Ethoxymethyl)-1-ethyl-4-(5-methyl-3-pyridyl)-1H-pyrazolo[3,4-b]pyridin-5-yl]acrylic acid] |  |  | 187 to 188
CCn1ncc2c(-c3cncc(C)c3)c(/C=C/C(=O)O)c(CC(C)(C)C)nc21 [Example 236, (2E)-3-[6-(2,2-Dimethylpropyl)-1-ethyl-4-(5-methyl-3-pyridyl)-1H-pyrazolo[3,4-b]pyridin-5-yl]acrylic acid] |  |  | 216 to 217.5
CCn1ncc2c(-c3cncc(C)c3)c(/C=C/C(=O)O)c(COC(C)C)nc21 [Example 240, (2E)-3-[1-Ethyl-6-(isopropoxymethyl)-4-(5-methyl-3-pyridyl)-1H-pyrazolo[3,4-b]pyridin-5-yl]acrylic acid] |  |  | 198 to 199
CCn1ncc2c(-c3cncc(C)c3)c(CCC(=O)O)c(CC3CC3)nc21 [Example 241, 3-[6-(Cyclopropylmethyl)-1-ethyl-4-(5-methyl-3-pyridyl)-1H-pyrazolo[3,4-b]pyridin-5-yl]propanoic acid] |  |  | 184 to 185
CCn1ncc2c(-c3ccnc(C)c3)c(/C=C/C(=O)O)c(C(C)C)nc21 [Example 242, (2E)-3-[1-Ethyl-6-isopropyl-4-(2-methyl-4-pyridyl)-1H-pyrazolo[3,4-b]pyridin-5-yl]acrylic acid] |  |  | 260 to 262.5
CCC(CC)NC(=O)c1c(-c2ccccc2)nc2c(cnn2CC)c1-c1cncc(C)c1 [Example 245, 1-Ethyl-N-(1-ethylpropyl)-4-(5-methyl-3-pyridyl)-6-phenyl-1H-pyrazolo[3,4-b]pyridine-5-carboxamide] |  |  | 170 to 172
CCn1ncc2c(-c3cncc(C)c3)c(C(=O)NCCOc3ccccc3)c(-c3ccccc3)nc21 [Example 246, 1-Ethyl-4-(5-methyl-3-pyridyl)-N-(2-phenoxyethyl)-6-phenyl-1H-pyrazolo[3,4-b]pyridine-5-carboxamide] |  |  | 175 to 176
CCn1ncc2c(-c3cncc(C)c3)c(C(=O)NCC3CCCCC3)c(-c3ccccc3)nc21 [Example 247, N-(Cyclohexylmethyl)-1-ethyl-4-(5-methyl-3-pyridyl)-6-phenyl-1H-pyrazolo[3,4-b]pyridine-5-carboxamide] |  |  | 197 to 199
CCn1ncc2c(-c3cncc(C)c3)c(CCC(=O)O)c(C3CC3)nc21 [Example 343, 3-[6-Cyclopropyl-1-ethyl-4-(5-methyl-3-pyridyl)-1H-pyrazolo[3,4-b]pyridin-5-yl]propanoic acid] |  |  | 205 to 207
CCn1ncc2c(-c3cncc(C)c3)c(CCC(=O)O)c(CC(C)C)nc21 [Example 344, 3-[1-Ethyl-6-isobutyl-4-(5-methyl-3-pyridyl)-1H-pyrazolo[3,4-b]pyridin-5-yl]propanoic acid] |  |  | 190 to 191
CCC(CC)c1nc2c(cnn2CC)c(-c2cncc(C)c2)c1CCC(=O)O [Example 346, 3-[1-Ethyl-6-(1-ethylpropyl)-4-(5-methyl-3-pyridyl)-1H-pyrazolo[3,4-b]pyridin-5-yl]propanoic acid] |  |  | 144 to 145
CCn1ncc2c(-c3cncc(C)c3)c(CCC(=O)O)c(CC(C)(C)C)nc21 [Example 349, 3-[6-(2,2-Dimethylpropyl)-1-ethyl-4-(5-methyl-3-pyridyl)-1H-pyrazolo[3,4-b]pyridin-5-yl]propanoic acid] |  |  | 221 to 223
CCn1ncc2c(-c3ccnc(C)c3)c(CCC(=O)O)c(C(C)C)nc21 [Example 351, 3-[1-Ethyl-6-isopropyl-4-(2-methyl-4-pyridyl)-1H-pyrazolo[3,4-b]pyridin-5-yl]propanoic acid] |  |  | 187 to 189
